# Assays:
# [1] = test system: IL-17-induced GROα secretion from HT-29 cells; test: GROα release assay in human colorectal adenocarcinoma epithelial cell (HT-29, ELISA); type: cell-based; conditions: Homo sapiens, HT-29, 48 h, 10 ng/mL IL-17A, highest concentration 10 μM, read-out: Cellular assay HT29 cell/CXCL1 IC50
# Procedure, shortened: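 HT-29 cells were exposed 48 h at 37°C to IL-17A (final 10 ng/mL) preincubated 15 min with compound (4-fold dilutions, top 10 μM). Secreted GROα was quantified by ELISA against a standard curve, and IC50 obtained by four-parameter fitting.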
# [2] = biological target: human IL-17A / human IL-17RA (Homo sapiens (Human), UniProt Q16552); test: Human IL-17A biochemical assay (HTRF, blocking of IL-17A binding to IL-17RA); conditions: 0.4 nM IL-17A, 0.3 nM IL-17RA, max compound concentration 10 uM
# Procedure, shortened: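 Recombinant human IL-17A (0.4 nM) was pre-incubated with compound (top 10 uM, 2.7-fold, 10 points) for 3 h at room temperature in 20 mM HEPES pH 7.5, 50 mM NaCl, 0.1% BSA, 0.2 mM DTT, 0.005% Tween 20. IL-17RA (0.3 nM) was then added for 1 h, followed by anti-6His Tb and anti-human IgG-XL665 detection for 1 h; IC50 from four-parameter fit.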
# human IL-17A / human IL-17RA, sequence (Q16552 24-155): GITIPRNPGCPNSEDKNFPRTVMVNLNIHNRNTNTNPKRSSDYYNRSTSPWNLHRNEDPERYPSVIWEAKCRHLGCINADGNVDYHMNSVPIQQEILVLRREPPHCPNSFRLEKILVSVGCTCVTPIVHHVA
smiles,measurement,setting,value
"CNC(=O)C1(N2CC3(CC3)CNC2=O)Cc2ccc(NC(=O)[C@@H](NC(=O)c3ccnn3C3CC(O)C3)C3CCCCC3)cc2C1 (stereo partly drawn) [Example 132, N-((1S)-1-cyclohexyl-2-((2-(methylcarbamoyl)-2-(6-oxo-5,7-diazaspiro[2.5]octan-5-yl)-2,3-dihydro-1H-inden-5-yl)amino)-2-oxoethyl)-1-(3-hydroxycyclobutyl)-1H-pyrazole-5-carboxamide]",IC50,[1],178 nM
same,IC50,[2],66 nM
"CC(C)[C@@H]1CN(C2(C(=O)N(C)C)Cc3ccc(NC(=O)[C@@H](NC(=O)c4ccnn4C)C4CCCCC4)cc3C2)C(=O)N1 (stereo partly drawn) [Example 135, N-((1S)-1-cyclohexyl-2-((2-(dimethylcarbamoyl)-2-((R)-4-isopropyl-2-oxoimidazolidin-1-yl)-2,3-dihydro-1H-inden-5-yl)amino)-2-oxoethyl)-1-methyl-1H-pyrazole-5-carboxamide]",IC50,[1],245 nM
same,IC50,[2],186 nM
"CC(C)[C@@H]1CN(C2(C(=O)N3CCC(O)C3)Cc3ccc(NC(=O)[C@@H](NC(=O)c4ccnn4C)C4CCCCC4)cc3C2)C(=O)N1 (stereo partly drawn) [Example 136, N-((1S)-1-cyclohexyl-2-((2-(3-hydroxypyrrolidine-1-carbonyl)-2-((R)-4-isopropyl-2-oxoimidazolidin-1-yl)-2,3-dihydro-1H-inden-5-yl)amino)-2-oxoethyl)-1-methyl-1H-pyrazole-5-carboxamide]",IC50,[1],279 nM
same,IC50,[2],108 nM
"CNC(=O)C1(N2CC3(CC3)CNC2=O)Cc2cc3nc([C@@H](NC(=O)c4ccnn4C)C4CCCCC4)[nH]c3cc2C1 [Example 137, 2-((S)-cyclohexyl(1-methyl-1H-pyrazole-5-carboxamido)methyl)-N-methyl-6-(6-oxo-5,7-diazaspiro[2.5]octan-5-yl)-1,5,6,7-tetrahydroindeno[5,6-d]imidazole-6-carboxamide]",IC50,[1],1490 nM
same,IC50,[2],413 nM
"CNC(=O)C1(N2CC3(CC3)CNC2=O)Cc2ccc(NC(=O)[C@@H](NC(=O)c3nonc3C)C3CCC(F)(F)CC3)cc2C1 (stereo partly drawn) [Example 138, N-((1S)-1-(4,4-difluorocyclohexyl)-2-((2-(methylcarbamoyl)-2-(6-oxo-5,7-diazaspiro[2.5]octan-5-yl)-2,3-dihydro-1H-inden-5-yl)amino)-2-oxoethyl)-4-methyl-1,2,5-oxadiazole-3-carboxamide]",IC50,[1],101 nM
same,IC50,[2],53.1 nM
"CCC1CCC(C(NC(=O)c2ccnn2C)C(=O)Nc2ccc3c(c2)CC(C(=O)NC)(N2CC4(CC4)CNC2=O)C3)CC1 (stereo not drawn) [Example 139, N-(1-(4-ethylcyclohexyl)-2-((2-(methylcarbamoyl)-2-(6-oxo-5,7-diazaspiro[2.5]octan-5-yl)-2,3-dihydro-1H-inden-5-yl)amino)-2-oxoethyl)-1-methyl-1H-pyrazole-5-carboxamide]",IC50,[1],21.9 nM
same,IC50,[2],10 nM
"CNC(=O)C1(N2CC3(CC3)CNC2=O)Cc2ccc(NC(=O)[C@@H](NC(=O)c3ccnn3C3CC3)C3CCCCC3)cc2C1 (stereo partly drawn) [Example 141, N-((1S)-1-cyclohexyl-2-((2-(methylcarbamoyl)-2-(6-oxo-5,7-diazaspiro[2.5]octan-5-yl)-2,3-dihydro-1H-inden-5-yl)amino)-2-oxoethyl)-1-cyclopropyl-1H-pyrazole-5-carboxamide]",IC50,[1],41.1 nM
same,IC50,[2],16 nM
"CNC(=O)C1(N2CC3(CC3)CNC2=O)Cc2ccc(NC(=O)[C@@H](NC(=O)c3ccnn3C)C3CCC(F)(F)CC3)cc2C1 (stereo partly drawn) [Example 142, N-((1S)-1-(4,4-difluorocyclohexyl)-2-((2-(methylcarbamoyl)-2-(6-oxo-5,7-diazaspiro[2.5]octan-5-yl)-2,3-dihydro-1H-inden-5-yl)amino)-2-oxoethyl)-1-methyl-1H-pyrazole-5-carboxamide]",IC50,[1],197 nM
same,IC50,[2],107 nM
"CNC(=O)C1(N2CC3(CC3)CNC2=O)Cc2ccc(NC(=O)C(NC(=O)c3ccnn3C)C3CCC(C(C)(F)F)CC3)cc2C1 (stereo not drawn) [Example 143, N-(1-(4-(1,1-difluoroethyl)cyclohexyl)-2-((2-(methylcarbamoyl)-2-(6-oxo-5,7-diazaspiro[2.5]octan-5-yl)-2,3-dihydro-1H-inden-5-yl)amino)-2-oxoethyl)-1-methyl-1H-pyrazole-5-carboxamide]",IC50,[1],772 nM
same,IC50,[2],163 nM
"CNC(=O)C1(N2C(=O)NC3CCC2C3)Cc2ccc(NC(=O)[C@@H](NC(=O)c3ccnn3C)C3CCCCC3)cc2C1 (stereo partly drawn) [Example 144, N-((1S)-1-cyclohexyl-2-((2-(methylcarbamoyl)-2-(3-oxo-2,4-diazabicyclo[3.2.1]octan-2-yl)-2,3-dihydro-1H-inden-5-yl)amino)-2-oxoethyl)-1-methyl-1H-pyrazole-5-carboxamide]",IC50,[1],182 nM
same,IC50,[2],48.6 nM
"CNC(=O)C1(N2CC3(CC3)CNC2=O)CCc2cc(NC(=O)[C@@H](NC(=O)c3ccnn3C)C3CCCCC3)sc2C1 (stereo partly drawn) [Example 145, N-((1S)-1-cyclohexyl-2-((6-(methylcarbamoyl)-6-(6-oxo-5,7-diazaspiro[2.5]octan-5-yl)-4,5,6,7-tetrahydrobenzo[b]thiophen-2-yl)amino)-2-oxoethyl)-1-methyl-1H-pyrazole-5-carboxamide]",IC50,[1],454 nM
same,IC50,[2],139 nM
"Cn1nccc1C(=O)N[C@H](C(=O)Nc1ccc2c(c1)CC(N1C[C@@H](C(F)(F)F)NC1=O)C2)C1CCCCC1 (stereo partly drawn) [Example 146, N-((1S)-1-cyclohexyl-2-oxo-2-((2-((S)-2-oxo-4-(trifluoromethyl)imidazolidin-1-yl)-2,3-dihydro-1H-inden-5-yl)amino)ethyl)-1-methyl-1H-pyrazole-5-carboxamide]",IC50,[1],768 nM
same,IC50,[2],204 nM
"CNC(=O)C1(N2CC3(CCCC3)CNC2=O)Cc2ccc(NC(=O)[C@@H](NC(=O)c3ccnn3C)C3CCCCC3)cc2C1 (stereo partly drawn) [Example 147, N-((1S)-1-cyclohexyl-2-((2-(methylcarbamoyl)-2-(8-oxo-7,9-diazaspiro[4.5]decan-7-yl)-2,3-dihydro-1H-inden-5-yl)amino)-2-oxoethyl)-1-methyl-1H-pyrazole-5-carboxamide]",IC50,[1],61.8 nM
same,IC50,[2],22.4 nM
"COC(=O)C1(N2CC3(CC3)CNC2=O)Cc2ccc(NC(=O)C(NC(=O)c3ccnn3C)C3CCC(C(C)C)CC3)cc2C1 (stereo not drawn) [Example 148, methyl 5-(2-(4-isopropylcyclohexyl)-2-(1-methyl-1H-pyrazole-5-carboxamido)acetamido)-2-(6-oxo-5,7-diazaspiro[2.5]octan-5-yl)-2,3-dihydro-1H-indene-2-carboxylate]",IC50,[1],164 nM
same,IC50,[2],62 nM
"CNC(=O)C1(N2C[C@@H](C(C)C)NC2=O)Cc2ccc(NC(=O)[C@@H](NC(=O)c3cccc(Oc4c(C)n[nH]c4C)c3)C3CCCCC3)cc2C1 (stereo partly drawn) [Example 149, 5-((S)-2-cyclohexyl-2-(3-((3,5-dimethyl-1H-pyrazol-4-yl)oxy)benzamido)acetamido)-2-((R)-4-isopropyl-2-oxoimidazolidin-1-yl)-N-methyl-2,3-dihydro-1H-indene-2-carboxamide]",IC50,[1],44.3 nM
same,IC50,[2],92 nM
"COc1ccc(CNC(=O)C2(N3C[C@@H](C(C)C)NC3=O)Cc3ccc(NC(=O)[C@@H](NC(=O)c4ccnn4C)C4CCCCC4)cc3C2)cc1 (stereo partly drawn) [Example 150, N-((1S)-1-cyclohexyl-2-((2-((R)-4-isopropyl-2-oxoimidazolidin-1-yl)-2-((4-methoxybenzyl)carbamoyl)-2,3-dihydro-1H-inden-5-yl)amino)-2-oxoethyl)-1-methyl-1H-pyrazole-5-carboxamide]",IC50,[1],46.5 nM
same,IC50,[2],20 nM
"CC(C)[C@@H]1CN(C2(C(=O)Nc3ccccc3)Cc3ccc(NC(=O)[C@@H](NC(=O)c4ccnn4C)C4CCCCC4)cc3C2)C(=O)N1 (stereo partly drawn) [Example 151, N-((1S)-1-cyclohexyl-2-((2-((R)-4-isopropyl-2-oxoimidazolidin-1-yl)-2-(phenylcarbamoyl)-2,3-dihydro-1H-inden-5-yl)amino)-2-oxoethyl)-1-methyl-1H-pyrazole-5-carboxamide]",IC50,[1],99.6 nM
same,IC50,[2],31 nM
"CNC(=O)C1(N2CC3(CC3)CNC2=O)Cc2ccc(NC(=O)C(NC(=O)c3ccnn3C)C3CCC(C(C)C)CC3)cc2C1 (stereo not drawn) [Example 152, N-(1-(4-isopropylcyclohexyl)-2-((2-(methylcarbamoyl)-2-(6-oxo-5,7-diazaspiro[2.5]octan-5-yl)-2,3-dihydro-1H-inden-5-yl)amino)-2-oxoethyl)-1-methyl-1H-pyrazole-5-carboxamide]",IC50,[1],31 nM
same,IC50,[2],10 nM
"CNC(=O)C1(N2CC3(CC3)CNC2=O)Cc2ccc(NC(=O)[C@@H](NC(=O)c3cccc(C#N)c3)C3CCCCC3)cc2C1 (stereo partly drawn) [Example 153, 5-((S)-2-(3-cyanobenzamido)-2-cyclohexylacetamido)-N-methyl-2-(6-oxo-5,7-diazaspiro[2.5]octan-5-yl)-2,3-dihydro-1H-indene-2-carboxamide]",IC50,[1],258 nM
same,IC50,[2],95 nM
"CCn1nccc1C(=O)N[C@H](C(=O)Nc1ccc2c(c1)CC(C(=O)NC)(N1CC3(CC3)CNC1=O)C2)C1CCCCC1 (stereo partly drawn) [Example 154, N-((1S)-1-cyclohexyl-2-((2-(methylcarbamoyl)-2-(6-oxo-5,7-diazaspiro[2.5]octan-5-yl)-2,3-dihydro-1H-inden-5-yl)amino)-2-oxoethyl)-1-ethyl-1H-pyrazole-5-carboxamide]",IC50,[1],71.4 nM
same,IC50,[2],28 nM
"CC(C)[C@@H]1CN(C2(C(=O)NC34CC5CC(CC(C5)C3)C4)Cc3ccc(NC(=O)[C@@H](NC(=O)c4ccnn4C)C4CCCCC4)cc3C2)C(=O)N1 (stereo partly drawn) [Example 155, N-((1S)-2-((2-(((3R,5R)-adamantan-1-yl)carbamoyl)-2-((R)-4-isopropyl-2-oxoimidazolidin-1-yl)-2,3-dihydro-1H-inden-5-yl)amino)-1-cyclohexyl-2-oxoethyl)-1-methyl-1H-pyrazole-5-carboxamide]",IC50,[1],211 nM
same,IC50,[2],129 nM

# From patent US20250154138A1, “Small Molecule IL-17A Modulators” (BeiGene, Ltd., priority 2022, published 2025)
